# From BindingDB's records for doi:10.1021/jm020955n (Johannes Gutenberg-Universität, 2002)
# Target: Glutamate receptor ionotropic, NMDA 1 glycine site (Sus scrofa)
# Assay: Tested for the affinity for the glycine binding site of the N-methyl-D-aspartate glutamate receptor using pig brain membranes in binding assay with [3H]-MDL- 105,519
row,Structure (SMILES),Ki
1,"CC(=O)c1ccc(-n2c(O)cn(Cc3c(C(=O)O)[nH]c4cc(Cl)cc(Cl)c34)c2=O)cc1 [3-[3-(4-Acetyl-phenyl)-2,4-dioxo-imidazolidin-1-ylmethyl]-4,6-dichloro-1H-indole-2-carboxylic acid]",150 nM
2,O=C(O)c1cc2c(Cl)cc(Cl)cc2[nH]1,2900 nM
3,"CCn1c(O)cn(Cc2c(C(=O)O)[nH]c3cc(Cl)cc(Cl)c23)c1=O [4,6-Dichloro-3-(3-ethyl-2,4-dioxo-imidazolidin-1-ylmethyl)-1H-indole-2-carboxylic acid]",1000 nM
4,"O=C(O)c1[nH]c2cc(Cl)cc(Cl)c2c1CNS(=O)(=O)c1ccccc1 [3-(Benzenesulfonylamino-methyl)-4,6-dichloro-1H-indole-2-carboxylic acid]",990 nM
5,"Cc1c(O)n(-c2ccccc2)c(=O)n1Cc1c(C(=O)O)[nH]c2cc(Cl)cc(Cl)c12 [4,6-Dichloro-3-(5-methyl-2,4-dioxo-3-phenyl-imidazolidin-1-ylmethyl)-1H-indole-2-carboxylic acid]",310 nM
6,"O=C(O)c1[nH]c2cc(Cl)cc(Cl)c2c1Cn1cc(O)n(-c2cccc(Cl)c2)c1=O [4,6-Dichloro-3-[3-(3-chloro-phenyl)-2,4-dioxo-imidazolidin-1-ylmethyl]-1H-indole-2-carboxylic acid]",85 nM
7,"O=C(O)c1[nH]c2cc(Cl)cc(Cl)c2c1Cn1cc(O)n(-c2ccccc2)c1=S [4,6-Dichloro-3-(4-oxo-3-phenyl-2-thioxo-imidazolidin-1-ylmethyl)-1H-indole-2-carboxylic acid]",580 nM
8,"O=C(O)c1[nH]c2cc(Cl)cc(Cl)c2c1CNCc1ccccc1 [3-(Benzylamino-methyl)-4,6-dichloro-1H-indole-2-carboxylic acid]",92000 nM
9,"O=C(O)c1[nH]c2cc(Cl)cc(Cl)c2c1Cn1cc(O)n(-c2ccc(Cl)cc2)c1=O [4,6-Dichloro-3-[3-(4-chloro-phenyl)-2,4-dioxo-imidazolidin-1-ylmethyl]-1H-indole-2-carboxylic acid]",120 nM
10,"O=C(O)c1[nH]c2cc(Cl)cc(Cl)c2c1Cn1cc(O)n(-c2cc(Cl)cc(Cl)c2)c1=O [4,6-Dichloro-3-[3-(3,5-dichloro-phenyl)-2,4-dioxo-imidazolidin-1-ylmethyl]-1H-indole-2-carboxylic acid]",80 nM
11,"O=C(O)c1[nH]c2cc(Cl)cc(Cl)c2c1Cn1cc(O)n(C2CCCCC2)c1=O [4,6-Dichloro-3-(3-cyclohexyl-2,4-dioxo-imidazolidin-1-ylmethyl)-1H-indole-2-carboxylic acid]",130 nM
12,"CC(C)n1c(O)cn(Cc2c(C(=O)O)[nH]c3cc(Cl)cc(Cl)c23)c1=O [4,6-Dichloro-3-(3-isopropyl-2,4-dioxo-imidazolidin-1-ylmethyl)-1H-indole-2-carboxylic acid]",1050 nM
13,"COc1ccc(-n2c(O)cn(Cc3c(C(=O)O)[nH]c4cc(Cl)cc(Cl)c34)c2=O)cc1 [4,6-Dichloro-3-[3-(4-methoxy-phenyl)-2,4-dioxo-imidazolidin-1-ylmethyl]-1H-indole-2-carboxylic acid]",100 nM

# The next compounds have a lower Ki than those just listed; values first:
row,Ki,Structure (SMILES)
1,36 nM,"Cc1ccc(-n2c(O)cn(Cc3c(C(=O)O)[nH]c4cc(Cl)cc(Cl)c34)c2=O)cc1 [4,6-Dichloro-3-(2,4-dioxo-3-p-tolyl-imidazolidin-1-ylmethyl)-1H-indole-2-carboxylic acid]"
2,53 nM,"O=C(O)c1[nH]c2cc(Cl)cc(Cl)c2c1Cn1cc(O)n(-c2ccc(F)cc2)c1=O [4,6-Dichloro-3-[3-(4-fluoro-phenyl)-2,4-dioxo-imidazolidin-1-ylmethyl]-1H-indole-2-carboxylic acid]"
3,72 nM,"O=C(NCc1c(C(=O)O)[nH]c2cc(Cl)cc(Cl)c12)NS(=O)(=O)c1ccccc1 [4,6-dichloro-3-[({[(phenylsulfonyl)amino]carbonyl}amino)methyl]-1H-indole-2-carboxylic acid]"
4,58 nM,"O=C(O)c1[nH]c2cc(Cl)cc(Cl)c2c1CN1CCN(c2ccccc2)C1=O [4,6-Dichloro-3-(2-oxo-3-phenyl-imidazolidin-1-ylmethyl)-1H-indole-2-carboxylic acid]"
5,14 nM,"O=C(NCc1c(C(=O)O)[nH]c2cc(Cl)cc(Cl)c12)Nc1ccccc1 [4,6-Dichloro-3-[(3-phenyl-ureido)-methyl]-1H-indole-2-carboxylic acid]"
6,57 nM,"CC(=O)c1cccc(-n2c(O)cn(Cc3c(C(=O)O)[nH]c4cc(Cl)cc(Cl)c34)c2=O)c1 [3-[3-(3-Acetyl-phenyl)-2,4-dioxo-imidazolidin-1-ylmethyl]-4,6-dichloro-1H-indole-2-carboxylic acid]"
7,22 nM,"O=C(O)c1[nH]c2cc(Cl)cc(Cl)c2c1Cn1cc(O)n(-c2ccccc2)c1=O [4,6-Dichloro-3-(2,4-dioxo-3-phenyl-imidazolidin-1-ylmethyl)-1H-indole-2-carboxylic acid]"
